Assays:
[1] = system: hippocampal gene expression; assay: Whole-transcriptome RNA-sequencing of hippocampus; type: in vivo, mice
Method: RNA was isolated from the hippocampus using the RNeasy Plus Universal Mini Kit (QIAGEN, Valencia, CA, USA). RNA sequencing (RNA-seq) libraries were prepared using the TruSeq Stranded mRNA Sample Prep Kit (Illumina, San Diego, CA, USA) according to the manufacturer’s instructions. Briefly, polyadenylation RNA was selected using oligo(dT) beads. Messenger RNA was then fragmented and reverse-transcribed. Complementary DNA (cDNA) was end-repaired, adenylated, and ligated with Illumina adapters with indexes. Adapter-ligated cDNA was then amplified. Libraries were pooled and sequenced single-end 50 bp on the HiSeq 2500 platform (Illumina). Sequencing reads were quality-tested using FastQC and aligned to the mm10 mouse genome using STAR Aligner version 2.4k. Mapping was carried out using default parameters (up to ten mismatches per read and up to nine multimapping locations per read). Raw gene expression was quantified across all gene exons by RNA-seq using the top-expressed isoform as a proxy for gene expression, and differential gene expression was carried out using the edge R package version 3.6.8, using replicates to compute within-group dispersion. p Values are adjusted to control the false discovery rate (FDR) by the method of Benjamini and Hochberg. Differentially expressed genes were defined as having an FDR <0.05 and a log2 fold change >1. […]

[2] = system: human neural precursor cells (NPCs); parameters: method as in PMID 27149904; conditions: compared with J147; cited from earlier work
[3] = system: APPswe/PS1∆E9 transgenic mice; assay: Two-day water maze; type: in vivo; conditions: AD mice fed 200 ppm in chow for 3 months from 10 months of age; day 2
Method: The APPswe/PS1∆E9-transgenic mice were characterized previously. Line 85 mice carry two transgenes, the mouse/human chimeric APPswe, linked to Swedish familial AD and human PS1∆E9. At 10 months of age, female transgenic mice were fed a defined diet (Harlan Teklad; Envigo, Indianapolis, IN, USA) with and without CAD-31 (200 ppm, approximately 10 mg/kg/day). Treatment continued for 3 months, followed by behavior testing and tissue harvesting.
Spatial memory was determined using the 2-day water maze with 13-month-old APPswe/PS1∆E9 transgenic mice fed CAD-31 for the previous 3 months. The protocol was adapted from a publication by Gulinello and colleagues. The goal platform was positioned 45 cm from the outside wall in the northwest quadrant of the maze. Day 1 involved training the mice (n = 10 per group) to find the platform using cues located around the pool within a 180-second time frame. This training involved a series of visible platform trials where mice were tracked using EthoVision software (Noldus Information Technology, Leesburg, VA, USA). […] The time it took each mouse to find the hidden platform was measured as escape latency. All trials were recorded using the EthoVision software, and statistics were computed using InStat software (GraphPad Software, La Jolla, CA, USA) by an individual blinded to the experiment.

eIF2α phosphorylation = assay: Immunoblotting of hippocampal tissue; type: in vivo; conditions: hippocampus, WT and old AD mice, 200 ppm in chow 3 months
Method: (§1) Hippocampal tissue samples were homogenized in 10 volumes of radioimmunoprecipitation assay (RIPA) lysis buffer (50 mM Tris, pH 7.5, 150 mM NaCl, 0.1% SDS, 0.5% deoxycholate, and 1% Nonidet P-40) containing a cocktail of protease and phosphatase inhibitors [[…] each of pepstatin A, aprotinin, phosphoramidon, and leupeptin; 0.5 mM 4-(2-aminoethyl)benzenesulfonyl fluoride hydrochloride; 1 mM ethylene glycol-bis(β-aminoethyl ether)-N,N,N′,N′-tetraacetic acid; 5 mM fenvalerate; and 5 mM cantharidin]. Samples were sonicated (2 × 10 seconds) and centrifuged first at 10,000 × g for 10 minutes and then at 100,000 × g for 60 minutes at 4 °C. The 100,000 × g pellet was taken up either in 6 M guanidine for Aβ analysis or in SDS sample buffer for Western blot analysis. Protein concentrations in the cell extracts were determined using a bicinchoninic acid protein assay (Pierce Biotechnology, Rockford, IL, USA). Equal amounts of protein were solubilized in 2.5× SDS sample buffer, separated on 12% SDS-polyacrylamide gels, transferred to Immobilon-P (EMD Millipore, Billerica, MA, USA), and immunoblotted with the antibodies indicated in the Materials subsection above. For Western blot experiments, protein levels were normalized to actin levels. An unpaired t test was performed to compare two groups at a single time point. When comparing multiple groups, one-way analysis of variance (ANOVA) followed by Tukey’s post hoc test was used. All statistical analysis was conducted using GraphPad InStat software.

OSCP = assay: Immunoblotting of hippocampal tissue; type: in vivo; conditions: hippocampus, control and AD mice
Method: as §1

AMPK phosphorylation = assay: Immunoblotting of hippocampal tissue; type: in vivo; conditions: hippocampus, WT and old AD mice, 200 ppm in chow 3 months
Method: as §1

RAGE = assay: Immunoblotting of hippocampal tissue; type: in vivo; conditions: hippocampus, AD mice
Method: as §1

Drebrin = assay: Immunoblotting of hippocampal tissue; type: in vivo; conditions: hippocampus, AD mice fed CAD-31 vs AD mice not fed
Method: as §1

clusterin = assay: Immunoblotting of hippocampal tissue; type: in vivo; conditions: hippocampus, AD mice
Method: as §1

VCAM = assay: Immunoblotting of hippocampal tissue; type: in vivo; conditions: hippocampus, AD mice
Method: as §1

Arc-1 = assay: Immunoblotting of hippocampal tissue; type: in vivo; conditions: hippocampus, AD mice fed CAD-31 vs AD mice not fed
Method: as §1

CYP 3A4 = CYP 3A4 (Homo sapiens, UniProt P08684); assay: CYP inhibition; type: in vitro ADME
CYP 3A4, sequence (P08684 whole entry): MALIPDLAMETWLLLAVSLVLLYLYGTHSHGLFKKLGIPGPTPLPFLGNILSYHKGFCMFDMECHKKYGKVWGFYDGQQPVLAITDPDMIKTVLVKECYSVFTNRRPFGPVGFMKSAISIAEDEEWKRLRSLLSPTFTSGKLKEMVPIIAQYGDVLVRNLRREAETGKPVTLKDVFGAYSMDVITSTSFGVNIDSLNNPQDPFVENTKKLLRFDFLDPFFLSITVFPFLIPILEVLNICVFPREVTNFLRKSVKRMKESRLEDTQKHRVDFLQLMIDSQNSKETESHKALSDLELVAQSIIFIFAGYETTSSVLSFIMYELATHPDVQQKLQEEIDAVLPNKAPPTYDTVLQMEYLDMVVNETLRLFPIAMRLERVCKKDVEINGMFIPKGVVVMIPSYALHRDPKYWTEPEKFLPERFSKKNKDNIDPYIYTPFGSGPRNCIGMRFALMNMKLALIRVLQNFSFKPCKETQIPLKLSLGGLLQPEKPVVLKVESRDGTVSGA

What does the source list for `Cc1ccc(N(/N=C/c2cccc(OC(F)(F)F)c2)C(=O)C(F)(F)F)c(C)c1` [CAD-31]?
number of significant genes changed ([1]; AD model, CAD-31-treated vs AD): 730; number of significant genes changed ([1]; WT model, CAD-31-treated vs control): 29; neurogenic activity [2]: enhanced neurogenic activity over J147; escape latency, hidden platform trial T1 [3]: significantly reduces the escape latency relative to AD mice to control levels; eIF2α phosphorylation (ratio to total eIF2α) (eIF2α phosphorylation): stimulates eIF2α phosphorylation in both WT and old AD mice; OSCP expression (OSCP): increased expression of OSCP in both control and AD mice; AMPK activation by phosphorylation (ratio to total AMPK) (AMPK phosphorylation): enhanced; RAGE expression (RAGE): reduced the expression; Drebrin expression (Drebrin): increased expression of both proteins; clusterin expression (clusterin): reduced the expression; VCAM expression (VCAM): reduced the expression; Arc-1 expression (Arc-1): increased expression of both proteins; EC50 at 10 µM (CYP 3A4): > 10 µM; EC50 at 10 µM (Micronucleus assay): > 10 µM; activity in the micronucleus assay (Micronucleus assay; 10 μM): showed no sign of acute toxicity or activity

Reference: publication PMC5513091, “A novel Alzheimer’s disease drug candidate targeting inflammation and fatty acid metabolism” (Alzheimer's Research & Therapy, 2017)
